pEC50: −log10 of the molar value.
Tests used:
[1] = from CC(C)(C)OC(=O)N[C@H]1CCCN[C@H]1COC1CCC(c2ccccc2CCC(=O)O)CC1; amide bond; 13-membered ring; HATU/DIEA; MeCN; 0.36 mM; 2.0 h
[2] = from CC(C)(C)OC(=O)N[C@H]1CCCN[C@H]1COC1CCC(c2ccccc2CCC(=O)O)CC1; amide bond; 13-membered ring; HATU/DIEA; MeCN; 0.36 mM; 2.0 h; remark: listed apart in the source
[3] = tested on: MDCK-MDR1 cells; assay: MDCK-MDR1 permeability assay; format: in vitro ADME; details: MDCK-MDR1 cells; for Papp A→B (10^−6 cm/s): apical to basolateral, 3 μM test compound, 2 hours at 37 degrees C
How it was run: (§1)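 Bidirectional transport across MDCK-MDR1 monolayers with test compound at 3 μM in HBSS, Lucifer Yellow 100 μM co-dosed as integrity marker; 2 h at 37 °C, donor and receiver quantified by LC-MS/MS. Papp = dQ/dt × 1/(A×C0); efflux ratio = Papp(B→A)/Papp(A→B), ER>2 taken as active transport.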

[4] = tested on: MDR1; assay: MDCK-MDR1 permeability assay; format: in vitro ADME; details: dog, MDCK-MDR1, Papp (basolateral to apical) divided by Papp (apical to basolateral), MDCK-MDR1 cells, 3 μM; read-out: Efflux ratio (ER)
How it was run: as §1

[5] = Hepatocytes stability assay (human hepatocytes); format: in vitro ADME; details: both sexes, cryopreserved hepatocytes, 1 μM test compound, 1×10^6 cell/mL, 37 degrees C, read-out: CLint (μL/min/million cells)
How it was run: (§2)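 Cryopreserved pooled (50 donors, mixed gender) human hepatocytes at 1×10^6 cells/mL in Krebs-Henseleit buffer with 1 μM compound (0.1% DMSO), 37 degrees C, sampled 0–240 min. Parent depletion by LC-MS/MS; first-order fit gave T1/2 and CLint, scaled to hepatic clearance via well-stirred model (fu assumed 1); extraction ratio = CL,hep/liver blood flow.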

[6] = tested on: human hepatocytes; assay: Hepatocytes stability assay (human hepatocytes); format: in vitro ADME; details: for Extraction Ratio (ER): scaled hepatic clearance divided by liver blood flow, fu assumed unity
How it was run: as §2

[7] = target: T1, human orexin-2 receptor (OX2R) (Homo sapiens, UniProt O43614); assay: Human OX2R IP1 assay; format: cell-based; details: T-Rex CHO cells stably overexpressing human OX2R, IP1 accumulation, 1 hr at 37 degrees C; mean EC50; ∧ = racemic mixture
T1 construct: expressed in transfected cells
T1 sequence (O43614 1-444): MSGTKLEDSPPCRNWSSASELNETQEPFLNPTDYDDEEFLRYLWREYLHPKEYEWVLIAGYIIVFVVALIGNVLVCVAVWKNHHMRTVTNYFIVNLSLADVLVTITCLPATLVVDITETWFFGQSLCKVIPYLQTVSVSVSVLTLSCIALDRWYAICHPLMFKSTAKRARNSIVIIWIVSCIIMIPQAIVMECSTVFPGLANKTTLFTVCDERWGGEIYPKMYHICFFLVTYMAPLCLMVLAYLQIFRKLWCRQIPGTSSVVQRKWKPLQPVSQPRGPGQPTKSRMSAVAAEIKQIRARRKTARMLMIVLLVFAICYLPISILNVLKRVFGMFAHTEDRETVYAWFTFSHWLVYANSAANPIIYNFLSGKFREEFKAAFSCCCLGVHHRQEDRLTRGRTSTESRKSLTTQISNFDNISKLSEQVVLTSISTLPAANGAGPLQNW
Procedure: T-Rex CHO cells stably overexpressing the human orexin-2 receptor (OX2R) were induced overnight with 1 μg/mL of doxycycline in a T225 flask. 24 hours post induction, cells were lifted with accutase and plated into a 384-well proxy plate at 30,000 cells/well. Cells were then treated with different test compounds in 1× stimulation buffer containing 10 mM Hepes, 1 mM CaCl2), 0.5 mM MgCl2, 4.2 mM KCl, 146 mM NaCl, 5.5 mM glucose, and 50 mM LiCl, pH 7.4, for 1 hr at 37 degrees C. Following incubation, the reaction was terminated by the addition of detection mix, which is composed of IP1-d2 and anti-IP1-cryptate diluted in lysis buffer as well as 1× stimulation buffer. The plates were allowed to incubate for 1 hour at room temperature and were then read in the EnVision® multimode plate reader, measuring inositol phosphate levels.
Cisbio IP1 is a cell-based functional assay quantifying the accumulation of inositol monophosphate (IP), a metabolite released as a result of orexin 2 receptor activation through the phospholipase C-Gq signaling pathway. This is a competitive immunoassay in which the IP1 produced by the cells upon receptor activation competes with the IP1 analog coupled to the d2 fluorophore (acceptor) for binding to an anti-IP1 monoclonal antibody labeled with Eu cryptate (donor). The measured HTRF-FRET based signal is inversely proportional to the IP1 concentration produced.
The EC50 values reported in Table 2 were obtained according to the human OX2R IP1 assay described above. Data are the mean EC50 values ±S.E.M. The compound methyl (2R,3S)-3-((methylsulfonyl)amino)-2-(((cis-4-phenylcyclohexyl)oxy)methyl)-piperidine-1-carboxylate is a reference compound which is disclosed in Example 5 of PCT publication no. WO2017/135306.

`CC(C)(C)OC(=O)N[C@H]1CCCN2C(=O)CCc3ccccc3C3CCC(CC3)OC[C@@H]12` showed a ring closure, conversion [1] of 40% and a ring closure, yield after HPLC [2] of 19%.

In the case of `CS(=O)(=O)N[C@H]1CCCN2C(=O)COc3nnccc3C3CCC(CC3)OCC12` (some centres unmarked) [Compound 56], the “Papp A→B (10^−6 cm/s)” value [3] was 0.13 10^−6 cm/s, the efflux ratio at 2 h, 3 μM [4] was 5.2 and the hepatocyte CLint at 1 μM [5] was < 1.9 µL/min/1e6 cells. For the same compound, the “Extraction Ratio (ER)” value [6] was <0.22.

In the case of `CS(=O)(=O)N[C@H]1CCCN2C(=O)COc3nnccc3[C@H]3CC[C@H](CC3)OC[C@@H]12` [Compound 66], the pEC50 [7] was > 7.00, the “Papp A→B (10^−6 cm/s)” value [3] was <0.047 10^−6 cm/s and the “Efflux ratio (ER)” value ([3]; Papp (basolateral to apical) divided by Papp (apical to basolateral), 3 μM) was >9.5. The “CLint (μL/min/million cells)” value ([6]; 1 μM test compound, 1×10^6 cell/mL, 37 degrees C) was <1.9 μL/min/million cells and the “Extraction Ratio (ER)” value [6] was <0.22.

From patent publication US12054495B2, “Substituted macrocyclic compounds and related methods of treatment” (Alkermes, Inc., priority 2019, dated 2024)
